Test results as given in patent US10806726B2, “Methods of using indazole-3-carb oxamides and their use as Wnt/B-catenin signaling pathway inhibitors” (Samumed, LLC, priority 2016, dated 2020).

Key:
[1] = system: Wnt-responsive promoter driving firefly luciferase in SW480 cells; experiment: Wnt reporter (SP5 promoter-luciferase) screening assay in SW480 cells; assay type: cell-based; settings: Homo sapiens, 24-40 h, top concentration ten micromolar
Excerpt: Another screening assay for Wnt activity is described as follows. Reporter cell lines can be generated by stably transducing cells of cancer cell lines (e.g., colon cancer) with a lentiviral construct that include a Wnt-responsive promoter driving expression of the firefly luciferase gene.
Lentiviral constructs can be made in which the SP5 promoter, a promoter having eight TCF/LEF binding sites derived from the SP5 promoter, is linked upstream of the firefly luciferase gene. The lentiviral constructs can also include a hygromycin resistance gene as a selectable marker. The SP5 promoter construct can be used to transduce SW480 cells, a colon cancer cell line having a mutated APC gene that generates a truncated APC protein, leading to de-regulated accumulation of β-catenin.
Cultured SW480 cells bearing a reporter construct can be distributed at approximately 10,000 cells per well into 96 well or 384 well plates. Compounds from a small molecule compound library can then be added to the wells in half-log dilutions using a ten micromolar top concentration. A series of control wells for each cell type receive only buffer and compound solvent. Twenty-four to forty hours after the addition of compound, reporter activity for luciferase can be assayed, for example, by addition of the BrightGlo luminescence reagent (Promega) and the Victor3 plate reader (Perkin Elmer). Readings can be normalized to DMSO only treated cells, and normalized activities can then be used in the EC50 calculations.

[2] = system: primary human mesenchymal stem cells (hMSCs); experiment: Tenocyte differentiation screening in hMSCs (SCXA-positive cells, 4 days); assay type: cell-based; settings: 96 h, fold change over DMSO
Excerpt: Representative compounds were screened using primary human mesenchymal stem cells (hMSCs) to determine their ability to induce tenocyte differentiation (process by which tendon is developed).
Primary human mesenchymal stem cells (hMSCs) were purchased from Lonza (Walkersville, Md.) and expanded in Mesenchymal Stem Cell Growth Media (Lonza). Cells between passage 3 and 6 were used for the experiments.
Cells were fixed using 4% formaldehyde (Electron Microscopy Sciences), and stained with anti-Sclerasis (anti-SCXA) antibodies (Abgent, San Diego, Calif.) [Webb S., et. al., Retinoic acid receptor signaling preserves tendon stem cell characteristics and prevents spontaneous differentiation in vitro, Stem Cell Research & Therapy 2016, 7:45] overnight at 4° C. […] Number of cells positive for SCXA in each well was quantified using the Celllnsight CX5. Data was normalized to the average of 12 DMSO treated wells on the same plate using Dotmatics Studies module. The normalized averages (fold change over DMSO) of 3 replicate wells for each compound concentration were calculated. Due to solubility limitations of some of the compounds, values for higher doses were manually corrected and curve fitting and EC50 determinations were performed using Dotmatics Studies.
EC50 for each compound is reported.

Row | Structure (SMILES) | EC50 [1] | EC50 [2]
1 | O=C(NC1CCCCC1)c1n[nH]c2ccc(-c3cncc(CN4CCCCC4)c3)cc12 [compound 77, N-Cyclohexyl-5-(5-(piperidin-1-ylmethyl)pyridin-3-yl)-1H-indazole-3-carboxamide] | 2650 nM | 6080 nM
2 | O=C(Nc1ccc2c(c1)OCO2)c1n[nH]c2ccc(-c3cncc(CN4CCCCC4)c3)cc12 [compound 78, N-(Benzo[d][1,3]dioxol-5-yl)-5-(5-(piperidin-1-ylmethyl)pyridin-3-yl)-1H-indazole-3-carboxamide] | 239 nM | > 100000 nM
3 | O=C(Nc1ccc2c(c1)OCCO2)c1n[nH]c2ccc(-c3cncc(CN4CCCCC4)c3)cc12 [compound 79, N-(2,3-Dihydrobenzo[b][1,4]dioxin-6-yl)-5-(5-(piperidin-1-ylmethyl)pyridin-3-yl)-1H-indazole-3-carboxamide] | 123 nM | > 100000 nM
4 | O=C(Nc1cncc(Cc2ccccc2)c1)c1n[nH]c2ccc(-c3cncc(CN4CCCCC4)c3)cc12 [compound 80, N-(5-Benzylpyridin-3-yl)-5-(5-(piperidin-1-ylmethyl)pyridin-3-yl)-1H-indazole-3-carboxamide] | 158 nM | > 100000 nM
5 | O=C(Nc1cnccn1)c1n[nH]c2ccc(-c3cncc(CN4CCCCC4)c3)cc12 [compound 81, 5-(5-(Piperidin-1-ylmethyl)pyridin-3-yl)-N-(pyrazin-2-yl)-1H-indazole-3-carboxamide] | 77 to 142 nM | > 100000 nM
6 | O=C(Nc1ccccc1)c1n[nH]c2ccc(-c3cncc(CN4CCCCC4)c3)cc12 [compound 82, N-Phenyl-5-(5-(piperidin-1-ylmethyl)pyridin-3-yl)-1H-indazole-3-carboxamide] | 143 to 188 nM | > 100000 nM
7 | CN1CCN(C(=O)c2n[nH]c3ccc(-c4cncc(CN5CCCCC5)c4)cc23)CC1 [compound 83, (4-Methylpiperazin-1-yl)(5-(5-(piperidin-1-ylmethyl)pyridin-3-yl)-1H-indazol-3-yl)methanone] | 2500 to 3400 nM | > 100000 nM
8 | C[C@@H]1CCC[C@H](C)N1Cc1cncc(-c2ccc3[nH]nc(C(=O)Nc4cccnc4)c3c2)c1 [compound 84, 5-(5-(((2R,6 S)-2,6-Dimethylpiperidin-1-yl)methyl)pyridin-3-yl)-N-(pyridin-3-yl)-1H-indazole-3-carboxamide] | 822 to 898 nM | > 100000 nM
9 | CN(C)Cc1cncc(NC(=O)c2n[nH]c3ccc(-c4cncc(CN5CCCCC5)c4)cc23)c1 [compound 86, N-(5-((Dimethylamino)methyl)pyridin-3-yl)-5-(5-(piperidin-1-ylmethyl)pyridin-3-yl)-1H-indazole-3-carboxamide] | 66 nM | 5270 nM
10 | CN1CCC(NC(=O)c2n[nH]c3ccc(-c4cncc(CN5CCCCC5)c4)cc23)CC1 [compound 87, N-(1-Methylpiperidin-4-yl)-5-(5-(piperidin-1-ylmethyl)pyridin-3-yl)-1H-indazole-3-carboxamide] | 2440 nM | 1580 nM
11 | CN(C)Cc1cncc(NC(=O)c2n[nH]c3ccc(-c4cncc(CN5CCCC5)c4)cc23)c1 [compound 106, N-(5-((Dimethylamino)methyl)pyridin-3-yl)-5-(5-(pyrrolidin-1-ylmethyl)pyridin-3-yl)-1H-indazole-3-carboxamide] | 33 nM | 5540 nM
12 | CN1CCN(Cc2cncc(NC(=O)c3n[nH]c4ccc(-c5cncc(CN6CCCCC6)c5)cc34)c2)CC1 [compound 124, N-(5-((4-Methylpiperazin-1-yl)methyl)pyridin-3-yl)-5-(5-(piperidin-1-ylmethyl)pyridin-3-yl)-1H-indazole-3-carboxamide] | 67 nM | > 100000 nM
13 | O=C(Nc1ccc(N2CCCCC2)nc1)c1n[nH]c2ccc(-c3cncc(CN4CCCCC4)c3)cc12 [compound 126, N-(6-(Piperidin-1-yl)pyridin-3-yl)-5-(5-(piperidin-1-ylmethyl)pyridin-3-yl)-1H-indazole-3-carboxamide] | 22 nM | 5540 nM
14 | O=C(Nc1cccc(F)c1)c1n[nH]c2ccc(-c3cncc(CN4CCCCC4)c3)cc12 [compound 162, N-(3-Fluorophenyl)-5-(5-(piperidin-1-ylmethyl)pyridin-3-yl)-1H-indazole-3-carboxamide] | 426 nM | > 100000 nM
15 | O=C(NC1CCOCC1)c1n[nH]c2ccc(-c3cncc(CN4CCCCC4)c3)cc12 [compound 163, 5-(5-(Piperidin-1-ylmethyl)pyridin-3-yl)-N-(tetrahydro-2H-pyran-4-yl)-1H-indazole-3-carboxamide] | 15400 nM | 5090 nM
16 | O=C(Nc1cncc(F)c1)c1n[nH]c2ccc(-c3cncc(CN4CCCCC4)c3)cc12 [compound 168, N-(5-Fluoropyridin-3-yl)-5-(5-(piperidin-1-ylmethyl)pyridin-3-yl)-1H-indazole-3-carboxamide] | 66 nM | > 100000 nM
17 | O=C(Nc1ccc(N2CCC(O)CC2)nc1)c1n[nH]c2ccc(-c3cncc(CN4CCCCC4)c3)cc12 [compound 169, N-(6-(4-Hydroxypiperidin-1-yl)pyridin-3-yl)-5-(5-(piperidin-1-ylmethyl)pyridin-3-yl)-1H-indazole-3-carboxamide] | 49 nM | 4900 nM
18 | O=C(Nc1ccc(N2CCCC2)nc1)c1n[nH]c2ccc(-c3cncc(CN4CCC(O)CC4)c3)cc12 [compound 170, 5-(5-((4-Hydroxypiperidin-1-yl)methyl)pyridin-3-yl)-N-(6-(pyrrolidin-1-yl)pyridin-3-yl)-1H-indazole-3-carboxamide] | 43 nM | > 100000 nM
19 | Cc1cc(NC(=O)c2n[nH]c3ccc(-c4cncc(CN5CCCCC5)c4)cc23)cnc1N1CCCC1 [compound 172, N-(5-Methyl-6-(pyrrolidin-1-yl)pyridin-3-yl)-5-(5-(piperidin-1-ylmethyl)pyridin-3-yl)-1H-indazole-3-carboxamide] | 60 nM | > 100000 nM
20 | Cc1cc(NC(=O)c2n[nH]c3ccc(-c4cncc(CN5CCCCC5)c4)cc23)cnc1N1CCC1 [compound 173, N-(6-(Azetidin-1-yl)-5-methylpyridin-3-yl)-5-(5-(piperidin-1-ylmethyl)pyridin-3-yl)-1H-indazole-3-carboxamide] | 36 nM | > 100000 nM
21 | O=C(Nc1ccc(N2CCC2)nc1)c1n[nH]c2ccc(-c3cncc(CN4CCCCC4)c3)cc12 [compound 174, N-(6-(Azetidin-1-yl)pyridin-3-yl)-5-(5-(piperidin-1-ylmethyl)pyridin-3-yl)-1H-indazole-3-carboxamide] | 48 nM | 5540 nM
22 | Nc1ncc(NC(=O)c2n[nH]c3ccc(-c4cncc(CN5CCCCC5)c4)cc23)cn1 [compound 176, N-(2-Aminopyrimidin-5-yl)-5-(5-(piperidin-1-ylmethyl)pyridin-3-yl)-1H-indazole-3-carboxamide] | 30 nM | 4650 nM
23 | O=C(Nc1ccc(N2CCNCC2)nc1)c1n[nH]c2ccc(-c3cncc(CN4CCCCC4)c3)cc12 [compound 177, N-(6-(Piperazin-1-yl)pyridin-3-yl)-5-(5-(piperidin-1-ylmethyl)pyridin-3-yl)-1H-indazole-3-carboxamide] | 183 nM | 5170 nM
24 | O=C(Nc1ccc(O)nc1)c1n[nH]c2ccc(-c3cncc(CN4CCCCC4)c3)cc12 [compound 178, N-(6-Hydroxypyridin-3-yl)-5-(5-(piperidin-1-ylmethyl)pyridin-3-yl)-1H-indazole-3-carboxamide] | 297 nM | > 100000 nM
25 | O=C(Nc1ccc(C(=O)N2CCCC2)nc1)c1n[nH]c2ccc(-c3cncc(CN4CCCCC4)c3)cc12 [compound 179, 5-(5-(Piperidin-1-ylmethyl)pyridin-3-yl)-N-(6-(pyrrolidine-1-carbonyl)pyridin-3-yl)-1H-indazole-3-carboxamide] | 30 nM | 1120 nM
26 | NC(=O)c1ccc(NC(=O)c2n[nH]c3ccc(-c4cncc(CN5CCCCC5)c4)cc23)cn1 [compound 180, N-(6-carbamoylpyridin-3-yl)-5-(5-(piperidin-1-ylmethyl)pyridin-3-yl)-1H-indazole-3-carboxamide] | 13 nM | > 100000 nM
27 | O=C(NC1CCCC1)c1ccc(NC(=O)c2n[nH]c3ccc(-c4cccnc4)cc23)cn1 [compound 181, N-(6-(Cyclopentylcarbamoyl)pyridin-3-yl)-5-(pyridin-3-yl)-1H-indazole-3-carboxamide] | 38 nM | > 100000 nM
